Measurements taken from patent publication US9999659B2, “Treatments using a peptide and/or vaccine” (AFFIRIS AG, priority 2012, dated 2018).

How the values were obtained:
[1] = tested on: polyclonal antibodies in mouse sera raised against original PCSK9 sequence (aa 153-162 or aa 153-165); experiment: Competition ELISA: mimotope competes with the original PCSK9 sequence for binding of polyclonal antibodies in mouse sera; conditions: 20 μg peptide incubated with sera; irrelevant peptide = 0% competition
Source text: FIGS. 2A and 2B show the ability of PCSK9 mimotopes to compete with the original PCSK9 sequence (aa 153-162 or aa 153-165) for binding polyclonal antibodies in mouse sera raised specifically against the latter.
All mimotopes are compared to the negative group (0% competition by an irrelevant peptide). As a positive control for each competition ELISA the original PCSK9 sequences were used (aa 153-162 or aa 153-165).
The graphs display the ability (in percent) of the mimotopes to compete with the original PCSK9 sequence (aa 153-162 or aa 153-165) for binding polyclonal antibodies raised against the latter.
20 μg of each indicated peptide was incubated with sera from mice injected with original PCSK9 sequence (aa 153-162 or aa 153-165: SEQ ID No. 2). Sera were then incubated on ELISA plates coated with the original PCSK9 sequence (aa 153-162 or aa 153-165: SEQ ID No. 2). Detection was performed with anti-mouse IgG antibodies, ABTS was used as a chromogenic substrate and optical density (OD) was measured at 405 nm.
Mimotopes diminishing >20% subsequent binding of the polyclonal antibodies from the sera to the original human PCSK9 epitope (aa 153-162 or 153-165: SEQ ID No. 3) coated on the ELISA plates were considered as competing mimotopes and as good candidates.

[2] = tested on: polyclonal antibodies specific for human PCSK9 aa 153-162 or aa 153-165; experiment: Binding ELISA: mimotopes coated on plates, detected by mouse sera raised against the original PCSK9 sequence; conditions: mimotope coated at 1 μmol/mL; titer = serum dilution where 50% of ODmax is reached
Source text: FIGS. 1A and 1B show detection of PCSK9 mimotopes sequences by mouse sera containing polyclonal antibodies specific for human PCSK9 aa 153-162 or aa 153-165
The graphs display median titers from all mimotopes compared to the irrelevant negative control. As a positive control the original human PCSK9 sequence is included: aa 153-162 or aa 153-165. Mimotopes with values over 1:50.000 are considered as good candidates.
Mimotopes were coated on ELISA plates at a concentration of 1 μmol/mL. After blocking unspecific binding (1% BSA in PBS) appropriate dilutions of sera from mice injected with the original human PCSK9 sequence aa 153-162 or aa 153-165 (SEQ ID No. 3) were added and incubated for approximately 1 hour. Subsequently, detection with anti-mouse IgG antibodies was performed. ABTS was used as substrate. OD measurements were performed at 405 nm and titers were defined as the dilution of the serum where 50% of the ODmax is reached.

Row | Substance | % Competition compared to the related control group [1] | Median Titer Binding ELISA (ODmax/2) [2]
1 | 7 (AIPWNLERIT; Artificial Sequence, Mimotope) [compound 7] | 88% | 199,000
2 | 18 (SIPHNLERIT; Artificial Sequence, Mimotope) [compound 18] | 0% | 23,000
3 | 45 (SIPWNLERITPAR; Artificial Sequence, Mimotope) [compound 45] | 74% | 184,000
4 | 11 (SGPWNLERITPPR; Artificial Sequence, Mimotope) [compound 11] | 54% | 81,000
5 | 20 (SIPSNLERIT; Artificial Sequence, Mimotope) [compound 20] | 7% | 22,000
6 | 63 (SQPWNLERIQ; Artificial Sequence, Mimotope) [compound 63] | 66% | 167,000
7 | 27 (SIPWNYERIT; Artificial Sequence, Mimotope) [compound 27] | 76% | 115,000
8 | 19 (SIPDNLERIT; Artificial Sequence, Mimotope) [compound 19] | 3% | 23,000
9 | 47 (SIPWNLERITPTR; Artificial Sequence, Mimotope) [compound 47] | 73% | 155,000
10 | 6 (VIPWNLERIT; Artificial Sequence, Mimotope) [compound 6] | 51% | 12,000
11 | 42 (SIPWNLERISPPR; Artificial Sequence, Mimotope) [compound 42] | 79% | 719,000
12 | 24 (SIPWDLERITPPR; Artificial Sequence, Mimotope) [compound 24] | 74% | 231,000
13 | 3 (ERTKSDPGAQHREF) [compound 3] | 0% | 
14 | 12 (SITWNLERIT; Artificial Sequence, Mimotope) [compound 12] | 62% | 124,000
15 | 31 (SIPWNLARIT; Artificial Sequence, Mimotope) [compound 31] | 13% | 34,000
16 | 35 (SIPWNLEDIT; Artificial Sequence, Mimotope) [compound 35] | 13% | 48,000
17 | 49 (SIPWNLERITPPA; Artificial Sequence, Mimotope) [compound 49] | 65% | 163,000
18 | 25 (SIPWNAERIT; Artificial Sequence, Mimotope) [compound 25] | 73% | 156,000

Row | Substance | % Competition compared to the related control group [1] | Median Titer Binding ELISA (ODmax/2) [2]
19 | 5 (TIPWNLERIT; Artificial Sequence, Mimotope) [compound 5] | 52% | 198,000
20 | 36 (SIPWNLERLT; Artificial Sequence, Mimotope) [compound 36] | 76% | 192,000
21 | 64 (SIPWSLERLT; Artificial Sequence, Mimotope) [compound 64] | 46% | 164,000
22 | 60 (SVPWNLERIQ; Artificial Sequence, Mimotope) [compound 60] | 61% | 222,000
23 | 51 (SIPWNLERITPPS; Artificial Sequence, Mimotope) [compound 51] | 66% | 149,000
24 | 67 (SIPWSLERIQ; Artificial Sequence, Mimotope) [compound 67] | 44% | 223,000
25 | 73 (SVPWSLERLT; Artificial Sequence, Mimotope) [compound 73] | 74% | 251,000
26 | 37 (SIPWNLERTT; Artificial Sequence, Mimotope) [compound 37] | 73% | 177,000
27 | 44 (SIPWNLERITSPR; Artificial Sequence, Mimotope) [compound 44] | 68% | 153,000
28 | 52 (SIPWNLERITPPL; Artificial Sequence, Mimotope) [compound 52] | 66% | 139,000
29 | 17 (SIPGNLERIT; Artificial Sequence, Mimotope) [compound 17] | 0% | 21,000
30 | 65 (SIPWSLERTT; Artificial Sequence, Mimotope) [compound 65] | 64% | 147,000
31 | 22 (SIPWALERIT; Artificial Sequence, Mimotope) [compound 22] | 75% | 157,000
32 | 9 (SQPWNLERIT; Artificial Sequence, Mimotope) [compound 9] | 30% | 149,000
33 | 71 (VQPWNLERLQ; Artificial Sequence, Mimotope) [compound 71] | 72% | 184,000
34 | 8 (SVPWNLERIT; Artificial Sequence, Mimotope) [compound 8] | 62% | 197,000
35 | 62 (SQPWNLERIL; Artificial Sequence, Mimotope) [compound 62] | 69% | 196,000
36 | 4 (ITELSRWPNI) [compound 4] | 0% | 
